2 compounds from US10874334B1, “Methods and systems for quantification of blood-brain barrier permeation of glycosylated peptides” (ARIZONA BOARD OF REGENTS ON BEHALF OF THE UNIVERSITY OF …, priority 2016, dated 2020) can be followed below.

Data set [1] is described as follows: Degradation study of enkephalins spiked into rodent serum (FIA-MS^n). The following applies: for stability (degradation) in serum with 5% acetic acid: rat serum + 5% acetic acid (HAc), 60-minute period before measurements (Ser+HAc+60 min); for stability (degradation) in serum: rat serum, peptides incubated in serum for 60 minutes prior to the study (Ser+60 min). The procedure: Ser refers to when Enkephalins were added to rat serum and degradation was allowed to proceed and the remaining enkephalin levels were measured at specific time points. […] Ser+HAc+60 min refers to when 5% acetic acid (HAc) was added to the serum, preserving enkephalins by inhibiting degradation during a 60 minute period before beginning measurements (Ser+HAc+60 min.). All error bars are SEM. Statistical significance is indicated by asterisks when p<0.05.
Degradation studies of enkephalins in biological fluids were performed by […]. […] Enkephalins were added to rat serum and degradation was allowed to proceed and the remaining enkephalin levels were measured at specific time points (Ser).

Data set [2] can be described thus: Degradation study of enkephalins spiked into cerebral spinal fluid (CSF) from rats. The following applies: for stability (degradation) in CSF with 5% HAc: CSF from rats + 5% HAc (+CSF+HAc), compared with isotonic aCSF.

Take methionine enkephalin [Met-Enkephalin]: in data set [1], the “stability (degradation) in serum with 5% acetic acid” value is listed as “preserved enkephalins by inhibiting degradation” and the “stability (degradation) in serum” value was “degradation was already complete”. The “stability (degradation) in CSF with 5% HAc” value in data set [2] was “prevents the degradation”.
`CC(C)C[C@H](NC(=O)[C@H](Cc1ccccc1)NC(=O)CNC(=O)CNC(=O)[C@@H](N)Cc1ccc(O)cc1)C(=O)O` [Leu-Enkephalin, leucine enkephalin]: in data set [1], the “stability (degradation) in serum with 5% acetic acid” value is reported as “preserved enkephalins by inhibiting degradation” and the “stability (degradation) in serum” value is recorded as “degradation was already complete”. For the same compound, the “stability (degradation) in CSF” value in data set [2] (CSF from rats (+CSF), single exponential decay fit) is reported as “degradation occurs in CSF over 20 minutes”. Further, in data set [2], the “stability (degradation) in CSF with 5% HAc” value is given as “prevents the degradation”.
